Where two headings read alike, the source gives them in different places.
Columns and labels:
K-562 = assay: NCI SRB cytotoxicity, leukemia K-562; type: cell-based; conditions: Homo sapiens, K562, 48 h exposure
Experimental: (§1) The pyrazolochalcones (7e, 8e, 10e, 11e, 12e, 13e and 8f) have been tested against fifty nine human tumor cell lines derived from nine cancer types (leukemia, non-small cell lung cancer, colon cancer, CNS cancer, melanoma, ovarian cancer, renal cancer, prostate cancer and breast cancer) as per the NCI protocol. For each compound, dose response curves for individual cell lines have been measured at a minimum of five concentrations at 10 fold dilutions. A protocol of 48 h continuous drug exposure has been used, and a sulforhodamine B (SRB) protein assay has been used to estimate cell viability or growth. The concentration for 50% cell growth inhibition (GI50), 50% cell death (LC50, 50% growth) and total cell growth inhibition (TGI, 0% growth) values were tabulated (Table-1). DMSO was used as control to calculate the values of GI50, LC50 and TGI. The compounds 7e, 8e, 10e, 11e, 12e, 13e and 8f has been evaluated for their in vitro cytotoxicity in […] cell lines from nine human cancer types of leukemia (K-562, SR), non-small cell lung (Hop-62, NCI-H226, NCI-H522), colon (HCT-116, HCT-15, HCC-2998), CNS (SF-539), melanoma (SK-MEL-5, UACC-62, M14), ovarian (IGROV1), renal (A498), prostate (PC3) and breast (BT-549, MDA-MB-435, HS578T) origin. The results are expressed as percent of cell growth determined relative to that of untreated control cells (Table 2).

MOLT-4 = assay: NCI SRB cytotoxicity, leukemia MOLT-4; type: cell-based; conditions: Homo sapiens, 48 h exposure
Experimental: as §1

SR = assay: NCI SRB cytotoxicity, leukemia SR; type: cell-based; conditions: Homo sapiens, 48 h exposure
Experimental: as §1

NCI-H226 = assay: NCI SRB cytotoxicity, non-small cell lung NCI-H226; type: cell-based; conditions: Homo sapiens, 48 h exposure
Experimental: as §1

NCI-H23 = assay: NCI SRB cytotoxicity, non-small cell lung NCI-H23; type: cell-based; conditions: Homo sapiens, 48 h exposure
Experimental: as §1

NCIH322M = assay: NCI SRB cytotoxicity, non-small cell lung NCIH322M; type: cell-based; conditions: Homo sapiens, NCI-H322M, 48 h exposure
Experimental: as §1

NCI-H522 = assay: NCI SRB cytotoxicity, non-small cell lung NCI-H522; type: cell-based; conditions: Homo sapiens, 48 h exposure
Experimental: as §1

COLO-205 = assay: NCI SRB cytotoxicity, colon COLO-205; type: cell-based; conditions: Homo sapiens, 48 h exposure
Experimental: as §1

HCC-2998 = assay: NCI SRB cytotoxicity, colon HCC-2998; type: cell-based; conditions: Homo sapiens, 48 h exposure
Experimental: as §1

HT29 = assay: NCI SRB cytotoxicity, colon HT29; type: cell-based; conditions: Homo sapiens, HT-29, 48 h exposure
Experimental: as §1

KM12 = assay: NCI SRB cytotoxicity, colon KM12; type: cell-based; conditions: Homo sapiens, 48 h exposure
Experimental: as §1

SW-620 = assay: NCI SRB cytotoxicity, colon SW-620; type: cell-based; conditions: Homo sapiens, 48 h exposure
Experimental: as §1

SNB-19 = assay: NCI SRB cytotoxicity, CNS SNB-19; type: cell-based; conditions: Homo sapiens, 48 h exposure
Experimental: as §1

LOX IMVI = assay: NCI SRB cytotoxicity, melanoma LOX IMVI; type: cell-based; conditions: Homo sapiens, 48 h exposure
Experimental: as §1

M14 = assay: NCI SRB cytotoxicity, melanoma M14; type: cell-based; conditions: Homo sapiens, 48 h exposure
Experimental: as §1

SK-MEL-2 = assay: NCI SRB cytotoxicity, melanoma SK-MEL-2; type: cell-based; conditions: Homo sapiens, 48 h exposure
Experimental: as §1

SK-MEL-28 = assay: NCI SRB cytotoxicity, melanoma SK-MEL-28; type: cell-based; conditions: Homo sapiens, 48 h exposure
Experimental: as §1

UACC-62 = assay: NCI SRB cytotoxicity, melanoma UACC-62; type: cell-based; conditions: Homo sapiens, 48 h exposure
Experimental: as §1

IGROV1 = assay: NCI SRB cytotoxicity, ovarian IGROV1; type: cell-based; conditions: Homo sapiens, IGROV-1, 48 h exposure
Experimental: as §1

OVCAR-5 = assay: NCI SRB cytotoxicity, ovarian OVCAR-5; type: cell-based; conditions: Homo sapiens, 48 h exposure
Experimental: as §1

NCI/ADR-RES = assay: NCI SRB cytotoxicity, ovarian NCI/ADR-RES; type: cell-based; conditions: Homo sapiens, 48 h exposure
Experimental: as §1

SK-OV-3 = assay: NCI SRB cytotoxicity, ovarian SK-OV-3; type: cell-based; conditions: Homo sapiens, 48 h exposure
Experimental: as §1

786-0 = assay: NCI SRB cytotoxicity, renal 786-0; type: cell-based; conditions: Homo sapiens, 48 h exposure
Experimental: as §1

A498 = assay: NCI SRB cytotoxicity, renal A498; type: cell-based; conditions: Homo sapiens, 48 h exposure
Experimental: as §1

CAKI-1 = assay: NCI SRB cytotoxicity, renal CAKI-1; type: cell-based; conditions: Homo sapiens, 48 h exposure
Experimental: as §1

PC-3 = assay: NCI SRB cytotoxicity, prostate PC-3; type: cell-based; conditions: Homo sapiens, 48 h exposure
Experimental: as §1

MCF7 = assay: NCI SRB cytotoxicity, breast MCF7; type: cell-based; conditions: Homo sapiens, 48 h exposure
Experimental: as §1

MDA-MB-231/ATCC = assay: NCI SRB cytotoxicity, breast MDA-MB-231/ATCC; type: cell-based; conditions: Homo sapiens, 48 h exposure
Experimental: as §1

HS 578T = assay: NCI SRB cytotoxicity, breast HS 578T; type: cell-based; conditions: Homo sapiens, 48 h exposure
Experimental: as §1

Leukemia = assay: NCI SRB cytotoxicity, leukemia panel average; type: cell-based, human; conditions: average of cell lines
Experimental: as §1
(§2) Each cancer type represents the average of six to eight different cancer cell lines.

Non-small cell lung = assay: NCI SRB cytotoxicity, non-small cell lung panel average; type: cell-based, human; conditions: average of cell lines
Experimental: as §1, §2

Colon = assay: NCI SRB cytotoxicity, colon panel average; type: cell-based, human; conditions: average of cell lines
Experimental: as §1, §2

CNS = assay: NCI SRB cytotoxicity, CNS panel average; type: cell-based, human; conditions: average of cell lines
Experimental: as §1, §2

Ovarian = assay: NCI SRB cytotoxicity, ovarian panel average; type: cell-based, human; conditions: average of cell lines
Experimental: as §1, §2

human tumor cell lines = assay: NCI SRB cytotoxicity, all fifty nine human tumor cell lines; type: cell-based; design: Log10 TGI mean graph midpoint (MG_MID): unit not given here; conditions: for GI50: Homo sapiens
Experimental: as §1
The mean graph midpoint values of Log10 TGI and Log10 LC50 as well as Log10 GI50 for compounds 7e, 8e, 10e, 11e, 12e, 13e and 8f is listed in Table-3. […] The mean graph mid points of Log10 TGI and Log10, LC50 have shown similar pattern to the log10 GI50 mean graph mid points.

[1] = Homo sapiens, read-out: Log10 GI50 (concentration in mol/L causing 50% growth inhibition) (converted)
[2] = Homo sapiens, read-out: Log10 LC50 (concentration in mol/L causing 50% cell death) (converted)

For `COc1cc(C(=O)/C=C/c2cc(-c3cc(OC)c(OC)c(OC)c3)n[nH]2)cc(OC)c1OC` [10e, (E)-1-(3,4,5-trimethoxyphenyl)-3-(3-(3,4,5-trimethoxyphenyl)-1H-pyrazol-5-yl)prop-2-en-1-one], which GI50 (K-562) is on record?
The GI50 was 2960 nM.

What about the GI50 (MOLT-4) of the same compound?
Its GI50 is 2320 nM.

And the GI50 (SR)?
Its GI50 is 390 nM.

And the GI50 (NCI-H226)?
Its GI50 is 1600 nM.

And the GI50 (NCI-H23)?
Its GI50 is 3040 nM.

What about the GI50 (NCIH322M) of the same compound?
Its GI50 is 2000 nM.

And the GI50 (NCI-H522)?
Its GI50 is 520 nM.

And the GI50 (COLO-205)?
Its GI50 is 1750 nM.

And the GI50 (HCC-2998)?
The GI50 was 1830 nM.

And the GI50 (HT29)?
Its GI50 is 1790 nM.

And the GI50 (KM12)?
Its GI50 is 1490 nM.

And the GI50 (SW-620)?
Its GI50 is 1590 nM.

And the GI50 (SNB-19)?
Its GI50 is 1660 nM.

What about the GI50 (LOX IMVI) of the same compound?
The GI50 was 1520 nM.

What about the GI50 (M14) of the same compound?
The GI50 was 1790 nM.

And the GI50 (SK-MEL-2)?
The GI50 was 1960 nM.

And the GI50 (SK-MEL-28)?
Its GI50 is 1820 nM.

And the GI50 (UACC-62)?
Its GI50 is 1780 nM.

And the GI50 (IGROV1)?
Its GI50 is 3140 nM.

And the GI50 (OVCAR-5)?
The GI50 was 1640 nM.

What about the GI50 (NCI/ADR-RES) of the same compound?
The GI50 was 3470 nM.

And the GI50 (SK-OV-3)?
Its GI50 is 3200 nM.

And the GI50 (786-0)?
Its GI50 is 1560 nM.

And the GI50 (A498)?
Its GI50 is 1610 nM.

And the GI50 (CAKI-1)?
The GI50 was 2580 nM.

And the GI50 (PC-3)?
The GI50 was 1470 nM.

And the GI50 (MCF7)?
The GI50 was 640 nM.

And the GI50 (MDA-MB-231/ATCC)?
Its GI50 is 1520 nM.

And the GI50 (HS 578T)?
Its GI50 is 2680 nM.

What about the GI50 (Leukemia; [1]) of the same compound?
The GI50 was 1200 nM.

What about the CC50 (Leukemia; [2]) of the same compound?
Its CC50 is 0.0001 mol/L.

What about the “Log10 TGI (concentration in mol/L causing total growth inhibition (0% growth))” value (Leukemia) of the same compound?
Its value is −4.80 mol/L.

And the GI50 (Non-small cell lung; [1])?
The GI50 was 1290 nM.

And the LC50 (Non-small cell lung; [2])?
The LC50 was 13500 nM.

What about the “Log10 TGI (concentration in mol/L causing total growth inhibition (0% growth))” value (Non-small cell lung) of the same compound?
Its value is −5.42 mol/L.

And the GI50 (Colon; [1])?
Its GI50 is 1620 nM.

What about the LC50 (Colon; [2]) of the same compound?
The LC50 was 6030 nM.

What about the “Log10 TGI (concentration in mol/L causing total growth inhibition)” value (Colon) of the same compound?
Its value is −5.50 mol/L.

And the GI50 (CNS; [1])?
The GI50 was 1620 nM.

And the LC50 (CNS; [2])?
The LC50 was 7940 nM.

And the “Log10 TGI (concentration in mol/L causing total growth inhibition (0% growth))” value (CNS)?
Its value is −5.46 mol/L.

And the GI50 (Ovarian; [1])?
The GI50 was 2190 nM.

What about the CC50 (Ovarian; [2]) of the same compound?
Its CC50 is 14500 nM.

What about the “Log10 TGI (concentration in mol/L causing total growth inhibition (0% growth))” value (Ovarian) of the same compound?
The value was −5.23 mol/L.

What about the GI50 (human tumor cell lines; across fifty nine cell lines in nine cell panels, read-out: GI50 value range) of the same compound?
Its GI50 is 180 to 29200 nM.

What about the GI50 (human tumor cell lines; against human tumor cell lines, read-out: Log10 GI50 mean graph midpoint (MG_MID) (converted)) of the same compound?
Its GI50 is 1550 nM.

What about the cytotoxicity (human tumor cell lines; against cancer cell lines, in words) of the same compound?
The cytotoxicity was “significant cytotoxicity”.

And the “Log10 TGI mean graph midpoint (MG_MID)” value (human tumor cell lines; against human tumor cell lines)?
Its value is −5.36.

What about the LC50 (human tumor cell lines; against human tumor cell lines, read-out: Log10 LC50 mean graph midpoint (MG_MID) (converted)) of the same compound?
The LC50 was 11500 nM.
